Legend:
[1] = solid-state stability of the crystal forms; format: physicochemical; details: qualitative comparison of the forms identified
[2] = hygroscopicity of the crystal form; format: physicochemical; details: solid form, qualitative

SMILES | stability of the crystal form [1] | further results
CCc1nc2c(C)nc(C)cc2n1-c1ccc(CCNC(=O)NS(=O)(=O)c2ccc(C)cc2)cc1 [Crystal Form C, N-[({2-[4-(2-Ethyl-4,6-dimethyl-1H-imidazo[4,5-c]pyridin-1-yl)phenyl]ethyl}amino)carbonyl]-4-methylbenzenesulfonamide] | less stable | stability of the crystal form ([1]; listed as C): (metastable)
CCc1nc2c(C)nc(C)cc2n1-c1ccc(CCNC(=O)NS(=O)(=O)c2ccc(C)cc2)cc1 [Crystal Form G, N-[({2-[4-(2-Ethyl-4,6-dimethyl-1H-imidazo[4,5-c]pyridin-1-yl)phenyl]ethyl}amino)carbonyl]-4-methylbenzenesulfonamide] | less stable | 
CCc1nc2c(C)nc(C)cc2n1-c1ccc(CCNC(=O)NS(=O)(=O)c2ccc(C)cc2)cc1 [Example 2, 2-ETHYL-4,6-DI METHYL-1-(4-{2-[({[(4-METHYLPHENYL)SULFONYL]AMINO}CARBONYL)AMINO]ETHYL}PHENYL)-1H-IMIDAZO[4,5-c]PYRIDINE, reference compound] |  | stability of the crystal form ([1]; listed as N-[({2-[4-(2-Ethyl-4,6-dimethyl-1H-imidazo[4,5-c]pyridin-1-yl)phenyl]ethyl}amino): unstable
CCc1nc2c(C)nc(C)cc2n1-c1ccc(CCNC(=O)NS(=O)(=O)c2ccc(C)cc2)cc1 [Polymorph Form A, N-[({2-[4-(2-Ethyl-4,6-dimethyl-1H-imidazo[4,5-c]pyridin-1-yl)phenyl]ethyl}amino)carbonyl]-4-methylbenzenesulfonamide] | most stable | hygroscopicity [2]: non-hygroscopic

The next lines start with results.

stability of the crystal form [1] | SMILES | further results
less stable | CCc1nc2c(C)nc(C)cc2n1-c1ccc(CCNC(=O)NS(=O)(=O)c2ccc(C)cc2)cc1 [Crystal Form D, N-[({2-[4-(2-Ethyl-4,6-dimethyl-1H-imidazo[4,5-c]pyridin-1-yl)phenyl]ethyl}amino)carbonyl]-4-methylbenzenesulfonamide] | 
stable | CCc1nc2c(C)nc(C)cc2n1-c1ccc(CCNC(=O)NS(=O)(=O)c2ccc(C)cc2)cc1 [Polymorph Form B, N-[({2-[4-(2-Ethyl-4,6-dimethyl-1H-imidazo[4,5-c]pyridin-1-yl)phenyl]ethyl}amino)carbonyl]-4-methylbenzenesulfonamide] | 
